{"source": "ChEMBL document CHEMBL1275245", "about": "“Clinical and toxicodynamic evidence that high-dose pyrazinamide is not more hepatotoxic than the low doses currently used” (Antimicrob Agents Chemother, 2010)", "key": {"[1]": {"system": "Homo sapiens", "assay": "Hepatotoxicity in TB patients assessed as jaundice at 3.7 g/kg/day measured after 52 days", "assay_type": "toxicity, organism-based", "settings": "in vivo, 3700 mg/kg, 1248 h"}, "[2]": {"system": "Homo sapiens", "assay": "Pharmacokinetic parameter in TB patient serum assessed as percentage of time the compound persisted above 5 mg/L at 1500 mg/kg daily", "assay_type": "ADME, organism-based", "set-up": "dose 1500 mg/kg", "settings": "in vivo"}, "[3]": {"assay": "AUC (0 to 168 hrs) in serum of TB patient at 3000 mg/kg administered alternate day", "assay_type": "ADME, organism-based", "set-up": "time < 168 hr, dose 3000 mg/kg", "settings": "human"}, "[4]": {"system": "Homo sapiens", "assay": "Pharmacokinetic parameter in TB patient serum assessed as percentage of time the compound persisted above 20 mg/L at 1500 mg/kg daily", "assay_type": "ADME, organism-based", "set-up": "dose 1500 mg/kg", "settings": "in vivo"}, "[5]": {"assay": "Systemic clearance in TB patient serum at 3000 mg/kg administered alternate day", "assay_type": "ADME, organism-based", "set-up": "dose 3000 mg/kg", "settings": "human"}, "[6]": {"organism": "Homo sapiens", "assay": "Pharmacokinetic parameter in TB patient serum assessed as percentage of time the compound persisted above 5 mg/L at 500 mg/ kg TID", "assay_type": "ADME, organism-based", "set-up": "dose 500 mg/ kg", "settings": "in vivo"}, "[7]": {"system": "Homo sapiens", "assay": "Hepatotoxicity in TB patients assessed as abnormal flocculation at 3.7 g/kg/day measured after 52 days", "assay_type": "toxicity, organism-based", "settings": "in vivo, 3700 mg/kg, 1248 h"}, "[8]": {"system": "Homo sapiens", "assay": "Hepatotoxicity in TB patients assessed as elevated aspartate aminotransferase level at 60 g/kg", "assay_type": "toxicity, organism-based", "settings": "in vivo, 60000 mg/kg"}, "[9]": {"system": "Homo sapiens", "assay": "Hepatotoxicity in TB patients assessed as abnormal flocculation at 3.7 g/kg/day measured after 87 days", "assay_type": "toxicity, organism-based", "settings": "in vivo, 3700 mg/kg, 2088 h"}, "[10]": {"system": "Homo sapiens", "assay": "Pharmacokinetic parameter in TB patient serum assessed as percentage of time the compound persisted above 5 mg/L at 3000 mg/kg administered alternate day", "assay_type": "ADME, organism-based", "set-up": "dose 3000 mg/kg", "settings": "in vivo"}, "[11]": {"organism": "Homo sapiens", "assay": "Toxicity in TB patients assessed as death", "assay_type": "organism-based", "settings": "in vivo"}, "[12]": {"assay": "Systemic clearance in TB patient serum at 1500 mg/kg daily", "assay_type": "ADME, organism-based", "set-up": "dose 1500 mg/kg", "settings": "human"}, "[13]": {"assay": "AUC (0 to 168 hrs) in TB patient serum at 500 mg/ kg TID", "assay_type": "ADME, organism-based", "set-up": "time < 168 hr, dose 500 mg/ kg", "settings": "human"}, "[14]": {"system": "Homo sapiens", "assay": "Pharmacokinetic parameter in TB patient serum assessed as percentage of time the compound persisted above 10 mg/L at 3000 mg/kg administered alternate day", "assay_type": "ADME, organism-based", "set-up": "dose 3000 mg/kg", "settings": "in vivo"}, "[15]": {"organism": "Homo sapiens", "assay": "Toxicity in TB patients assessed as arthralgia", "assay_type": "organism-based", "settings": "in vivo"}, "[16]": {"system": "Homo sapiens", "assay": "Pharmacokinetic parameter in TB patient serum assessed as percentage of time the compound persisted above 10 mg/L at 1500 mg/kg daily", "assay_type": "ADME, organism-based", "set-up": "dose 1500 mg/kg", "settings": "in vivo"}, "[17]": {"system": "Homo sapiens", "assay": "Hepatotoxicity in TB patients assessed as elevated aspartate aminotransferase level at 40 g/kg", "assay_type": "toxicity, organism-based", "settings": "in vivo, 40000 mg/kg"}, "[18]": {"assay": "Cmax in TB patient serum at 500 mg/kg TID", "assay_type": "ADME, organism-based", "set-up": "dose 500 mg/kg", "settings": "human"}, "[19]": {"system": "Homo sapiens", "assay": "Hepatotoxicity in TB patients assessed as jaundice at 3.7 g/kg/day measured after 87 days", "assay_type": "toxicity, organism-based", "settings": "in vivo, 3700 mg/kg, 2088 h"}, "[20]": {"system": "Homo sapiens", "assay": "Hepatotoxicity in TB patients assessed as elevated aspartate aminotransferase level at 30 g/kg", "assay_type": "toxicity, organism-based", "settings": "in vivo, 30000 mg/kg"}, "[21]": {"organism": "Homo sapiens", "assay": "Pharmacokinetic parameter in TB patient serum assessed as percentage of time the compound persisted above 10 mg/L at 500 mg/ kg TID", "assay_type": "ADME, organism-based", "set-up": "dose 500 mg/ kg", "settings": "in vivo"}, "[22]": {"assay": "AUC (0 to 168 hrs) in serum of TB patient at 1500 mg/kg daily", "assay_type": "ADME, organism-based", "set-up": "time < 168 hr, dose 1500 mg/kg", "settings": "human"}, "[23]": {"assay": "Systemic clearance in TB patient serum at 500 mg/ kg TID", "assay_type": "ADME, organism-based", "set-up": "dose 500 mg/ kg", "settings": "human"}, "[24]": {"organism": "Homo sapiens", "assay": "Pharmacokinetic parameter in TB patient serum assessed as percentage of time the compound persisted above 20 mg/L at 500 mg/ kg TID", "assay_type": "ADME, organism-based", "set-up": "dose 500 mg/ kg", "settings": "in vivo"}, "[25]": {"assay": "Cmax in TB patient serum at 1500 mg/kg daily", "assay_type": "ADME, organism-based", "set-up": "dose 1500 mg/kg", "settings": "human"}, "[26]": {"assay": "Cmax in TB patient serum at 3000 mg/kg administered alternate day", "assay_type": "ADME, organism-based", "set-up": "dose 3000 mg/kg", "settings": "human"}, "[27]": {"system": "Homo sapiens", "assay": "Pharmacokinetic parameter in TB patient serum assessed as percentage of time the compound persisted above 20 mg/L at 3000 mg/kg administered alternate day", "assay_type": "ADME, organism-based", "set-up": "dose 3000 mg/kg", "settings": "in vivo"}}}
{"compound": "NC(=O)c1cnccn1", "note": "[PYRAZINAMIDE]", "values": [{"measurement": "Activity", "setting": "[1]", "value": "Non-toxic"}, {"measurement": "Activity", "setting": "[2]", "value": 74, "unit": "%"}, {"measurement": "AUC(0-t) at 168 h", "setting": "[3]", "value": 2160, "unit": "µg·h/mL"}, {"measurement": "Activity", "setting": "[4]", "value": 24, "unit": "%"}, {"measurement": "clearance", "setting": "[5]", "value": 69.3, "unit": "mL/min"}, {"measurement": "Activity", "setting": "[6]", "value": 92, "unit": "%"}, {"measurement": "Activity", "setting": "[7]", "value": "Non-toxic"}, {"measurement": "Activity", "setting": "[8]", "value": "Non-toxic"}, {"measurement": "Activity", "setting": "[9]", "value": "Non-toxic"}, {"measurement": "Activity", "setting": "[10]", "value": 48, "unit": "%"}, {"measurement": "Activity", "setting": "[11]", "value": "Toxic"}, {"measurement": "clearance", "setting": "[12]", "value": 66.2, "unit": "mL/min"}, {"measurement": "AUC at 168 h", "setting": "[13]", "value": 2190, "unit": "µg·h/mL"}, {"measurement": "Activity", "setting": "[14]", "value": 35, "unit": "%"}, {"measurement": "Activity", "setting": "[15]", "value": "Toxic"}, {"measurement": "Activity", "setting": "[16]", "value": 49, "unit": "%"}, {"measurement": "Activity", "setting": "[17]", "value": "Non-toxic"}, {"measurement": "Cmax", "setting": "[18]", "value": 20200, "unit": "ng/mL"}, {"measurement": "Activity", "setting": "[19]", "value": "Non-toxic"}, {"measurement": "Activity", "setting": "[20]", "value": "Non-toxic"}, {"measurement": "Activity", "setting": "[21]", "value": 67, "unit": "%"}, {"measurement": "AUC at 168 h", "setting": "[22]", "value": 2270, "unit": "µg·h/mL"}, {"measurement": "clearance", "setting": "[23]", "value": 68.5, "unit": "mL/min"}, {"measurement": "Activity", "setting": "[24]", "value": 9, "unit": "%"}, {"measurement": "Cmax", "setting": "[25]", "value": 33800, "unit": "ng/mL"}, {"measurement": "Cmax", "setting": "[26]", "value": 67500, "unit": "ng/mL"}, {"measurement": "Activity", "setting": "[27]", "value": 23, "unit": "%"}]}
